In general, Kd refers to the free concentration of one partner at which half of the binding sites on the other are occupied at equilibrium, for simple one-to-one binding.

The target of this assay is T1, Recombinant human GhR-Fc protein (Homo sapiens, UniProt P10912).
T1 construct: purchased R&D Systems
The assay is described as follows: SPR binding assay (Biacore T200, single-cycle kinetics) of peptides against immobilized human GhR-Fc. The note with it: SPR, hGhR, KD calculated from ka and kd, read-out: KD. On the procedure: SPR assay was performed using Biacore T200 (cytiva: Former GE Healthcare). After the equilibration of Series S Sensor Chip CM5 (produced by cytiva: Former GE Healthcare) with Running Buffer (HBS-EP with 1% (v/v) DMSO), an EDC/NHS mixture was injected at a flow rate of 10 μL/min for 7 minutes to thereby activate the functional groups on sensor chip. Recombinant human GhR-Fc protein (R&D Systems) in 10 mM Acetate (pH 4.0) was injected immobilized to at a flow rate of 5 μL/min. It took 7 minutes to immobilize the GhR on the substrate surfaces of the sensor chip. Then Ethanolamine was injected at a flow rate of 10 μL/min for 7 minutes. 1M Ethanolamine (aq.) was injected at a flow rate of 10 μL/min for 420 seconds for capping.
Using these Peptide Samples, kinetics of peptides against human GhR-Fc protein were measured. The method adopted for sample measurement was a single-cycle kinetics method. The analysis was conducted using the evaluation software provided with Biacore T200. A DMSO correction curve obtained by solvent correction measurements was applied for the analysis. Kinetics fitting was done on the difference data obtained by subtracting the baseline data from sample measurement data. KD values were calculated based on the association rate constant (ka) and dissociation rate constant (kd). […]

Where two headings read alike, the source gives them in different places. Starred links: 1 amine or outer side, 2 acyl side, 3 side chain; linkers in the order of their positions; H or OH if unused. Positions of bridges follow the written chain, without caps; N, C: chain ends. Non-standard residues stand in square brackets, D forms with d. Residues, ends and D or L forms follow the SMILES beside them. Groups on a side chain read outwards from the residue. *: point of attachment. X3 = NC(=O)[C@H](CCCCN*)NC(=O)CC[C@H](NC(=O)CC[C@H](NC(=O)CCCCCCCCCCCCCCC(=O)O)C(=O)O)C(=O)O; Trp(1-CH2CO) = O=C([C@H](Cc1cn(CC(=O)[*:3])c2ccccc12)N[*:1])[*:2]; Trp(5-OMe) = COc1ccc2[nH]cc(C[C@H](N)C(=O)O)c2c1; Butanoyl(4-(4-I-phenyl)) = O=C(CCCc1ccc(I)cc1)*; Trp(5-OH) = N[C@@H](Cc1c[nH]c2ccc(O)cc12)C(=O)O; Phe(4-COOH) = N[C@@H](Cc1ccc(C(=O)O)cc1)C(=O)O; Piperazinyl(4-CH2COOH) = O=C(O)CN1CCN(*)CC1; γGlu = O=C(O)[C@H](CCC(=O)[*:2])N[*:1]; NMeK = CN[C@@H](CCCCN)C(=O)O; Aib = CC(C)(N)C(=O)O; CO = O=C([*:1])[*:2]

T1 sequence (P10912 with tags, fused parts or gaps limits assumed): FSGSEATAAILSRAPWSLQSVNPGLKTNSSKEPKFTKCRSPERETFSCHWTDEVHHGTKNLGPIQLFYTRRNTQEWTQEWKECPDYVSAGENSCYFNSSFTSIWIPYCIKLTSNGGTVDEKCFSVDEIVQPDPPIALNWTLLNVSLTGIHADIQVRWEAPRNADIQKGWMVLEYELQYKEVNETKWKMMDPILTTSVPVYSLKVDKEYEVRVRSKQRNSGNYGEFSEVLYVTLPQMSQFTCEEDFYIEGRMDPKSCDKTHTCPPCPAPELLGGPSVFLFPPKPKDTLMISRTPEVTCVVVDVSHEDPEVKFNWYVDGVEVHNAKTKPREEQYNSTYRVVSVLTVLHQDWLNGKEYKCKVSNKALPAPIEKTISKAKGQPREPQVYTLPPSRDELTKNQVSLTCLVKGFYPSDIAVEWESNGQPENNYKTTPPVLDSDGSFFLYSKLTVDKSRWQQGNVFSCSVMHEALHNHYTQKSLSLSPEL

On to `COc1ccc2[nH]cc(C[C@@H]3NC(=O)[C@H](CC(N)=O)NC(=O)[C@H](CO)NC(=O)[C@H](C(C)C)NC(=O)[C@H](C(C)C)NC(=O)[C@H](CCCCNC(=O)CC[C@H](NC(=O)CC[C@H](NC(=O)CCCc4ccc(I)cc4)C(=O)O)C(=O)O)N(C)C(=O)[C@H](Cc4ccc(O)cc4)NC(=O)CSC[C@@H](C(=O)NCC(=O)N4CCC[C@H]4C(=O)N[C@H](CO)C(=O)N[C@H](CO)C(=O)N[C@H](CO)C(N)=O)NC(=O)[C@H](C(C)C)NC(=O)C(C)(C)NC(=O)[C@H](Cc4c[nH]c5ccc(O)cc45)NC(=O)[C@H](CCCCN)NC(=O)[C@H](Cc4ccc(C(=O)O)cc4)NC3=O)c2c1` [Compound 55] ({CH2CO}-Y[NMeK]([γGlu-γGlu-Butanoyl(4-(4-I-phenyl))])VVSN[Trp(5-OMe)][Phe(4-COOH)]K[Trp(5-OH)][Aib]VCGP[dS][dS][dS]-NH2; thioether N-13), for which the Kd (Table 2 monocyclic peptides) is 2.83 nM.

In the case of `CC(C)[C@@H]1NC(=O)[C@H](C(C)C)NC(=O)[C@@H]2CCCCNC(=O)Cn3cc(c4ccccc43)C[C@H](NC(=O)[C@H](CC(N)=O)NC(=O)[C@H](CO)NC1=O)C(=O)N[C@@H](Cc1ccc(O)cc1)C(=O)N[C@@H](CCCCNC(=O)N1CCN(CC(=O)O)CC1)C(=O)N[C@@H](Cc1c[nH]c3ccc(O)cc13)C(=O)NC(C)(C)C(=O)N[C@@H](C(C)C)C(=O)N[C@H](C(=O)NCCCC[C@H](NC(=O)CC[C@H](NC(=O)CC[C@H](NC(=O)CCCCCCCCCCCCCCC(=O)O)C(=O)O)C(=O)O)C(N)=O)CSCC(=O)N[C@@H](Cc1ccc(C(=O)O)cc1)C(=O)N2C` [Compound 17] ({CH2CO}-[Phe(4-COOH)][NMeK]VVSN[Trp(1-CH2CO)]YK([CO-Piperazinyl(4-CH2COOH)])[Trp(5-OH)][Aib]VC-X3; lactam 2-7; thioether N-13), the dissociation constant (Kd) (Table 1 bicyclic peptides) was 4.1 nM.

With `COc1ccc2[nH]cc(C[C@@H]3NC(=O)[C@H](CC(N)=O)NC(=O)[C@H](CO)NC(=O)[C@H](C(C)C)NC(=O)[C@H](C(C)C)NC(=O)[C@H](CCCCNC(=O)CC[C@H](NC(=O)CC[C@H](NC(=O)CCCc4ccc(I)cc4)C(=O)O)C(=O)O)N(C)C(=O)[C@H](Cc4ccc(C(=O)O)cc4)NC(=O)CSC[C@@H](C(=O)NCC(=O)N4CCC[C@H]4C(=O)N[C@H](CO)C(=O)N[C@H](CO)C(=O)N[C@H](CO)C(N)=O)NC(=O)[C@H](C(C)C)NC(=O)C(C)(C)NC(=O)[C@H](Cc4c[nH]c5ccc(O)cc45)NC(=O)[C@H](CCCCN)NC(=O)[C@H](Cc4ccc(C(=O)O)cc4)NC3=O)c2c1` [Compound 42] ({CH2CO}-[Phe(4-COOH)][NMeK]([γGlu-γGlu-Butanoyl(4-(4-I-phenyl))])VVSN[Trp(5-OMe)][Phe(4-COOH)]K[Trp(5-OH)][Aib]VCGP[dS][dS][dS]-NH2; thioether N-13), under “Table 2 monocyclic peptides”, the Kd is 3.79 nM.

On to `COc1ccc2[nH]cc(C[C@@H]3NC(=O)[C@H](CC(N)=O)NC(=O)[C@H](CO)NC(=O)[C@H](C(C)C)NC(=O)[C@H](C(C)C)NC(=O)[C@H](CCCCNC(=O)CC[C@H](NC(=O)CCCc4ccc(I)cc4)C(=O)O)N(C)C(=O)[C@H](Cc4ccc(C(=O)O)cc4)NC(=O)CSC[C@@H](C(=O)NCC(=O)N4CCC[C@H]4C(=O)N[C@H](CO)C(=O)N[C@H](CO)C(=O)N[C@H](CO)C(N)=O)NC(=O)[C@H](C(C)C)NC(=O)C(C)(C)NC(=O)[C@H](Cc4c[nH]c5ccc(O)cc45)NC(=O)[C@H](CCCCN)NC(=O)[C@H](Cc4ccc(C(=O)O)cc4)NC3=O)c2c1` [Compound 41] ({CH2CO}-[Phe(4-COOH)][NMeK]([γGlu-Butanoyl(4-(4-I-phenyl))])VVSN[Trp(5-OMe)][Phe(4-COOH)]K[Trp(5-OH)][Aib]VCGP[dS][dS][dS]-NH2; thioether N-13), for which the Kd (Table 2 monocyclic peptides) is 2.63 nM.
